pIC50: −log10 of the molar value. Numbered stars: 1 amine (or outer) side, 2 acyl side, 3 side chain; on linkers, the order of the positions; unused ones are H or OH. Square brackets hold non-standard residues; d marks the D form. Peptide text beside a SMILES is read from it. * marks the point of attachment. Butanoyl(3R-OMe,4S-NMe,4-Cy) = CO[C@H](CC(=O)[*:2])[C@H](C1CCCCC1)N(C)[*:1]; Dolaproine = CO[C@@H]([C@@H]1CCCN1)[C@@H](C)C(=O)O; X2 = CO[C@H](CC(=O)[*:2])[C@H](C1CCCC1)N(C)[*:1]; Dil = CC[C@H](C)[C@H](NC)[C@@H](CC(=O)O)OC; X1 = C[C@@H](N*)[C@@H](O)c1ccccc1; NMeV = CN[C@H](C(=O)O)C(C)C; Aib = CC(C)(N)C(=O)O; OtBu = CC(C)(C)O*
Experiments:
Type in all cases: cell-based, Human
[1] = test system: HCC1954; assay: In vitro cell assay (Cell Titer Glo), HCC1954; conditions: 6 days exposure
Method: (§1) In vitro cell assay is performed in a 96 well micro titer plate. Human tumor cell lines Hela, A549, MCF-7, HCC-1954 and SK-BR-3 are obtained from ATCC (American Type Culture Collection).
The cells were harvested respectively during the logarithmic growth period and counted with hemocytometer. […] 90 μl of cell suspensions were added in to 96-well plates, the final cell density was reached to 3000 cells/well. […]
(§2) To each well was added 10 μL, of DMSO diluted compound (10×). For the sentinel base T0 plate, to each well was added 100 μL Cell Titer Gloand the luminescence signals with Envision reading were recorded.
(§3) […] Plates are read with Envision after adding Cell Titer Glo to each well. IC50 values were calculated using GraphPad Prism 5.

[2] = test system: A549; assay: In vitro cell assay (Cell Titer Glo), A549
Method: as §1
The cells were harvested respectively during the logarithmic growth period and counted with hemocytometer. The cell viability was over 98% by trypan blue exclusion. 90 μl of cell suspensions were added in to 96-well plates, the final cell density was reached to 3000 cells/well. […]
as §2, §3

[3] = test system: Hela; assay: In vitro cell assay (Cell Titer Glo), Hela; conditions: 6 days exposure
Method: as §1
The cells were harvested respectively during the logarithmic growth period and counted with hemocytometer. The cell viability was over 98% by trypan blue exclusion. 90 μl of cell suspensions were added in to 96-well plates, the final cell density was reached to 3000 cells/well. Plates were incubated for 96 hours at 37° C., and 5% CO2.
as §2, §3

[4] = test system: MCF-7; assay: In vitro cell assay (Cell Titer Glo), MCF-7
Method: as §1
(§4) The cells were harvested respectively during the logarithmic growth period and counted with hemocytometer. […] 90 μl of cell suspensions were added in to 96-well plates, the final cell density was reached to 3000 cells/well. Plates were incubated for 96 hours at 37° C., and 5% CO2.
as §2, §3

[5] = test system: SK-BR-3; assay: In vitro cell assay (Cell Titer Glo), SK-BR-3; conditions: 6 days exposure
Method: as §1, §4, §2, §3

[6] = Homo sapiens, HCC1954, 144 h, Table 2
[7] = Homo sapiens, HeLa, 144 h, Table 2
[8] = Homo sapiens, SK-BR-3, 144 h, Table 2
[9] = Homo sapiens, HCC1954, 144 h, Table 01
[10] = Homo sapiens, HeLa, 144 h, Table 01
[11] = Homo sapiens, SK-BR-3, 144 h, Table 01
[12] = Table 3, payloads and related ADCs, Her2 positive

| SMILES | pIC50 [1, 6] | pIC50 ([2]; Homo sapiens, A549, Table 2) | pIC50 [3, 7] | pIC50 ([4]; Homo sapiens, MCF7, Table 2) | pIC50 [5, 8] | pIC50 [1, 9] | pIC50 ([2]; Homo sapiens, A549, Table 01) | pIC50 [3, 10] | pIC50 ([4]; Homo sapiens, MCF7, Table 01) | pIC50 [5, 11] | further results |
| --- | --- | --- | --- | --- | --- | --- | --- | --- | --- | --- | --- |
| N.N.[Cl][Pt][Cl] [Cisplatin, reference compound] | – | – | – | – | – | – | – | – | – | – | pIC50 ([1]; Table 01): 5.49; pIC50 ([1]; Table 2): 5.49; pIC50 ([2]; Table 01, 6 days exposure): 5.55; pIC50 ([2]; Table 2, 6 days exposure): 5.55; pIC50 ([3]; Table 01): 6.74; pIC50 ([3]; Table 2): 6.74; pIC50 ([4]; Table 01, 6 days exposure): 5.45; pIC50 ([4]; Table 2, 6 days exposure): 5.45; pIC50 ([5]; Table 01): 6.07; pIC50 ([5]; Table 2): 6.07 |
| CO[C@H]([C@@H](C)C(=O)N[C@H](C)[C@@H](O)c1ccccc1)[C@@H]1CCCN1C(=O)C[C@@H](OC)[C@H](C1CCCC1)N(C)C(=O)[C@@H](NC(=O)C(C)(C)N)C(C)C [Compound 17, (S)-2-(2-amino-2-methylpropanamido)-N-((1S,2R)-1-cyclopentyl-4-((S)-2-((1R,2R)-3-((1S,2R)-1-hydroxy-1-phenylpropan-2-ylamino)-1-methoxy-2-methyl-3-oxopropyl)pyrrolidin-1-yl)-2-methoxy-4-oxobutyl)-N,3-dimethylbutanamide] | 9.21 | 8.20 | 8.81 | 8.32 | 9.08 | – | – | – | – | – | – |
| CO[C@H]([C@@H](C)C(=O)N[C@H](C)[C@@H](O)c1ccccc1)[C@@H]1CCCN1C(=O)C[C@@H](OC)[C@H](C1CCCCC1)N(C)C(=O)[C@@H](NC(=O)C(C)(C)N)C(C)C [Compound 18, (S)-2-(2-amino-2-methylpropanamido)-N-((1S,2R)-1-cyclohexyl-4-((S)-2-((1R,2R)-3-((1S,2R)-1-hydroxy-1-phenylpropan-2-ylamino)-1-methoxy-2-methyl-3-oxopropyl)pyrroli-din-1-yl)-2-methoxy-4-oxobutyl)-N,3-dimethylbutanamide] | 9.33 | 8.94 | 9.32 | 8.50 | 9.09 | – | – | – | – | – | – |
| CO[C@H]([C@@H](C)C(=O)N[C@@H](Cc1ccccc1)C(=O)OC(C)(C)C)[C@@H]1CCCN1C(=O)C[C@@H](OC)[C@H](C1CCCC1)N(C)C(=O)[C@@H](NC(=O)C(C)(C)N)C(C)C [Compound 21, (S)-tert-butyl2-((2R,3R)-3-((S)-1-((3R,4S)-4-((S)-2-(2-amino-2-methylpropanamido)-N,3-dimethylbutanamido)-4-cyclopentyl-3-methoxybutanoyl)pyrrolidin-2-yl)-3-methoxy-2-methylpropanamido)-3-phenylpropanoate] (H-[Aib]V[X2][Dolaproine]F-OtBu) | 9.53 | 8.95 | 9.25 | 8.89 | 9.65 | – | – | – | – | – | – |
| CO[C@H]([C@@H](C)C(=O)N[C@@H](Cc1ccccc1)C(=O)OC(C)(C)C)[C@@H]1CCCN1C(=O)C[C@@H](OC)[C@H](C1CCCCC1)N(C)C(=O)[C@@H](NC(=O)C(C)(C)N)C(C)C [Compound 22, (S)-tert-butyl-2-((2R,3R)-3-((S)-1-((3R,4S)-4-((S)-2-(2-amino-2-methylpropanamido)-N, 3-dimethylbutanamido)-4-cyclohexyl-3-methoxybutanoyl)pyrrolidin-2-yl)-3-methoxy-2-methylpropanamido)-3-phenylpropanoate] (H-[Aib]V[Butanoyl(3R-OMe,4S-NMe,4-Cy)][Dolaproine]F-OtBu) | 9.95 | 8.97 | 9.25 | 9.28 | 10.18 | – | – | – | – | – | – |
| CO[C@H]([C@@H](C)C(=O)N[C@@H](Cc1ccccc1)c1nccs1)[C@@H]1CCCN1C(=O)C[C@@H](OC)[C@H](C1CCCC1)N(C)C(=O)[C@@H](NC(=O)C(C)(C)N)C(C)C [Compound 23] | 9.39 | 8.55 | 9.32 | 8.54 | 9.16 | – | – | – | – | – | – |
| CO[C@H]([C@@H](C)C(=O)N[C@@H](Cc1ccccc1)c1nccs1)[C@@H]1CCCN1C(=O)C[C@@H](OC)[C@H](C1CCCCC1)N(C)C(=O)[C@@H](NC(=O)C(C)(C)N)C(C)C [Compound 24, (S)-2-(2-amino-2-methylpropanamido)-N-((1S,2R)-1-cyclohexyl-2-methoxy-4-((S)-2-((1R,2R)-1-methoxy-2-methyl-3-oxo-3-((S)-2-phenyl-1-(thiazol-2-yl)ethylamino)propyl)pyrrolidin-1-yl)-4-oxobutyl)-N,3-dimethylbutanamide] | 9.51 | 8.48 | 9.24 | 8.70 | 9.28 | – | – | – | – | – | – |
| CN[C@H](C(=O)N[C@H](C(=O)N(C)[C@@H](C1CCCC1)[C@@H](CC(=O)N1CCC[C@H]1[C@H](OC)[C@@H](C)C(=O)N[C@H](C)[C@@H](O)c1ccccc1)OC)C(C)C)C(C)C [Compound 33] | – | – | – | – | – | 9.84 | 8.69 | 9.37 | 8.87 | 9.42 | – |
| CN[C@H](C(=O)N[C@H](C(=O)N(C)[C@@H](C1CCCCC1)[C@@H](CC(=O)N1CCC[C@H]1[C@H](OC)[C@@H](C)C(=O)N[C@H](C)[C@@H](O)c1ccccc1)OC)C(C)C)C(C)C [Compound 34] | – | – | – | – | – | 9.72 | 8.78 | 9.41 | 8.84 | 9.48 | – |
| CN[C@H](C(=O)N[C@H](C(=O)N(C)[C@@H](C1CCCC1)[C@@H](CC(=O)N1CCC[C@H]1[C@H](OC)[C@@H](C)C(=O)N[C@@H](Cc1ccccc1)c1nccs1)OC)C(C)C)C(C)C [Compound 35] | – | – | – | – | – | 9.92 | 9.17 | 9.99 | 9.04 | 9.72 | – |
| CN[C@H](C(=O)N[C@H](C(=O)N(C)[C@@H](C1CCCCC1)[C@@H](CC(=O)N1CCC[C@H]1[C@H](OC)[C@@H](C)C(=O)N[C@@H](Cc1ccccc1)c1nccs1)OC)C(C)C)C(C)C [Compound 36] | – | – | – | – | – | 9.99 | 9.25 | 9.84 | 9.08 | 9.71 | – |
| CN[C@H](C(=O)N[C@H](C(=O)N(C)[C@@H](C1CCCC1)[C@@H](CC(=O)N1CCC[C@H]1[C@H](OC)[C@@H](C)C(=O)N[C@@H](Cc1ccccc1)C(=O)OC(C)(C)C)OC)C(C)C)C(C)C [Compound 37] (H-[NMeV]V[X2][Dolaproine]F-OtBu) | – | – | – | – | – | 10.02 | 9.06 | 9.70 | 9.34 | 9.93 | – |
| CN[C@H](C(=O)N[C@H](C(=O)N(C)[C@@H](C1CCCCC1)[C@@H](CC(=O)N1CCC[C@H]1[C@H](OC)[C@@H](C)C(=O)N[C@@H](Cc1ccccc1)C(=O)OC(C)(C)C)OC)C(C)C)C(C)C [Compound 38] (H-[NMeV]V[Butanoyl(3R-OMe,4S-NMe,4-Cy)][Dolaproine]F-OtBu) | – | – | – | – | – | 9.89 | 9.56 | 10.11 | 9.19 | 10.01 | – |
| CC[C@H](C)[C@@H]([C@@H](CC(=O)N1CCC[C@H]1[C@H](OC)[C@@H](C)C(=O)N[C@H](C)[C@@H](O)c1ccccc1)OC)N(C)C(=O)[C@@H](NC(=O)[C@@H](NC)C(C)C)C(C)C [MMAE, monomethylauristatin E, reference compound] (H-[NMeV]V[Dil][Dolaproine]-X1) | – | – | – | – | – | – | – | – | – | – | pIC50 ([1]; Table 01): 10.14; pIC50 [1, 12]: 10.14; pIC50 ([2]; Table 01, 6 days exposure): 9.29; pIC50 ([3]; Table 01): 10.00; pIC50 ([4]; Table 01, 6 days exposure): 9.49; pIC50 ([4]; Table 3, payloads and related ADCs, 6 days exposure, does not over-express Her2): 9.49; pIC50 ([5]; Table 01): 9.99; pIC50 [5, 12]: 9.99 |

Reference: patent publication US20160158307A1, “Potent and Efficient Cytotoxic Peptides and Antibody-Drug Conjugates thereof and Their Synthesis” (priority 2014, published 2016)
